Here are results for three molecules from PMC10638548 (Acta Pharmaceutica Sinica. B, 2023).

The conditions of data set [1]: 20 μmol/L NMV, 0.1 mg HLM, 1 mmol/L NADPH, 37 °C, 1 h.
The next data set deals with CYP3A4 (Homo sapiens, UniProt P08684). The settings on record: 20 μmol/L NMV, 10 pmol CYP, 1 mmol/L NADPH, 37 °C, 1 h.
The target of a further data set is CYP3A5 (Homo sapiens, UniProt P20815). The settings on record: 20 μmol/L NMV, 10 pmol CYP, 1 mmol/L NADPH, 37 °C, 1 h.
The next data set concerns the target T1, CYP1A2 (Homo sapiens, UniProt P05177).
T1 sequence (P05177 1-516): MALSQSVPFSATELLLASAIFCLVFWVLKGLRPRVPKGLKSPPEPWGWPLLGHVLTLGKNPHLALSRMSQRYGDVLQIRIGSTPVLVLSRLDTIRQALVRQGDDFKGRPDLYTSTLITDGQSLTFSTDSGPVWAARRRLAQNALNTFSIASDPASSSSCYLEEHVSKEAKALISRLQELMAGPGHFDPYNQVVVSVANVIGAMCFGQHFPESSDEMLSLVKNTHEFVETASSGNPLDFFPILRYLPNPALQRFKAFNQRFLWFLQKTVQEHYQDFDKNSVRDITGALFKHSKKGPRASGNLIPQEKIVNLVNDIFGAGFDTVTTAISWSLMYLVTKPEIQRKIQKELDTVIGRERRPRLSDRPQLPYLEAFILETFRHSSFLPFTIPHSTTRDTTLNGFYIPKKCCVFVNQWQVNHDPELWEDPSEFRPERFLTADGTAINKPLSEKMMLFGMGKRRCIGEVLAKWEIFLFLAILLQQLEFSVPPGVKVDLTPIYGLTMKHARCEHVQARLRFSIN
The settings on record: 20 μmol/L NMV, 10 pmol CYP, 1 mmol/L NADPH, 37 °C, 1 h.

Another data set concerns the target T2, CYP2A6 (Homo sapiens, UniProt P11509).
T2 sequence (P11509 1-494): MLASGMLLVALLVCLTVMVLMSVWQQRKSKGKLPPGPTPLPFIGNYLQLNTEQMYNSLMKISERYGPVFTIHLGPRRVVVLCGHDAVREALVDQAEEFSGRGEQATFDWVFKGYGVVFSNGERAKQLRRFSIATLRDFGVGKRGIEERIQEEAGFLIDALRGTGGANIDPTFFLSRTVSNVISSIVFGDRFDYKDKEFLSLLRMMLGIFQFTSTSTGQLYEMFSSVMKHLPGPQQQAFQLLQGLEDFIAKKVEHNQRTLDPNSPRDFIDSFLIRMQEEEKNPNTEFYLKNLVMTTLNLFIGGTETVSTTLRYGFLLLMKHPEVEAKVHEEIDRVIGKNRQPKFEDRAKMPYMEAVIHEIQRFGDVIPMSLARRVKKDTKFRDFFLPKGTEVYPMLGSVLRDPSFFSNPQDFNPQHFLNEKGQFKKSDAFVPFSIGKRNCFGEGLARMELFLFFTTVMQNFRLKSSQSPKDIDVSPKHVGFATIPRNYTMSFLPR
The settings on record: 20 μmol/L NMV, 10 pmol CYP, 1 mmol/L NADPH, 37 °C, 1 h.

A further data set concerns the target T3, CYP2B6 (Homo sapiens, UniProt P20813).
T3 sequence (P20813 1-491): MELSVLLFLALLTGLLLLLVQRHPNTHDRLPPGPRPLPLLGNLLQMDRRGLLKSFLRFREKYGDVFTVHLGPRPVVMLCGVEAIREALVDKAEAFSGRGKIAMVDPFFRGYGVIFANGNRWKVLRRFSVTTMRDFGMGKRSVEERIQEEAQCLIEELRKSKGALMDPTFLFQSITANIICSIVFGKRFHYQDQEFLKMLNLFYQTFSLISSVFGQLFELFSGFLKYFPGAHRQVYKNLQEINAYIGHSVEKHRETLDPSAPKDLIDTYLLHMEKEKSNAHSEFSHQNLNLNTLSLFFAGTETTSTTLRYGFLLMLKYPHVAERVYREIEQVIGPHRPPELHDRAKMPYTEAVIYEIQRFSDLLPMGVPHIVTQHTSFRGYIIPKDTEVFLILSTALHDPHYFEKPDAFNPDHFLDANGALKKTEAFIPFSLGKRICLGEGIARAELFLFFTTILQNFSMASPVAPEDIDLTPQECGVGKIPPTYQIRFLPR
The settings on record: 20 μmol/L NMV, 10 pmol CYP, 1 mmol/L NADPH, 37 °C, 1 h.

Another data set addresses CYP2C9 (Homo sapiens, UniProt P11712). The settings on record: 20 μmol/L NMV, 10 pmol CYP, 1 mmol/L NADPH, 37 °C, 1 h.
In a further data set the target is CYP2C19 (Homo sapiens, UniProt P33261). The settings on record: 20 μmol/L NMV, 10 pmol CYP, 1 mmol/L NADPH, 37 °C, 1 h.
Another data set concerns the target CYP2D6 (Homo sapiens, UniProt P10635). The settings on record: 20 μmol/L NMV, 10 pmol CYP, 1 mmol/L NADPH, 37 °C, 1 h.
Another data set has as its target CYP2E1 (Homo sapiens, UniProt P05181). The settings on record: 20 μmol/L NMV, 10 pmol CYP, 1 mmol/L NADPH, 37 °C, 1 h.
For data set [2] the following is noted: hPXR/CYP3A mice pretreated with RCP (60 mg/kg, po, bid, 4 days), then oral RTV 20 mg/kg + NMV 60 mg/kg.
For data set [3] the following is noted: cited from earlier work.
The next data set concerns CYP3A4 mRNA. The settings on record: hPXR/CYP3A mice; RIF 50 mg/kg in diet 7 days; RCP 60 mg/kg po bid 4 days.
The next data set concerns CYP3A protein. The settings on record: RCP 60 mg/kg po bid 4 days.
Where [4] appears, read: clinical studies, co-administration of carbamazepine (CYP3A inducer) ref 16.

CYP2D6, sequence (P10635 whole entry): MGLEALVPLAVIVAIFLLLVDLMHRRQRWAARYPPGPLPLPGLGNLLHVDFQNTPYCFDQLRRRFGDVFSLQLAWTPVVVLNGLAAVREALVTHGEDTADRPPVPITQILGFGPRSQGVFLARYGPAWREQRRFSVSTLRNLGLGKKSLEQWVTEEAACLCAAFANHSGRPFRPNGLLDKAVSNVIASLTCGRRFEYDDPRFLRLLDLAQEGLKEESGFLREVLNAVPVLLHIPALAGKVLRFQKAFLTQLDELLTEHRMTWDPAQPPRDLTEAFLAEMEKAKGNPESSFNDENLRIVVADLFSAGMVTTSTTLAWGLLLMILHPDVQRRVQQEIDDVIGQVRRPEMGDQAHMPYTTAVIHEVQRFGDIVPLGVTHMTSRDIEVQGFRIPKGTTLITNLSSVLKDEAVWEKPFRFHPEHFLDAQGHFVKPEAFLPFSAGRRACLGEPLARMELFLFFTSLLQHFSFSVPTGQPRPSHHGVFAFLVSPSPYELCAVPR
CYP2E1, sequence (P05181 whole entry): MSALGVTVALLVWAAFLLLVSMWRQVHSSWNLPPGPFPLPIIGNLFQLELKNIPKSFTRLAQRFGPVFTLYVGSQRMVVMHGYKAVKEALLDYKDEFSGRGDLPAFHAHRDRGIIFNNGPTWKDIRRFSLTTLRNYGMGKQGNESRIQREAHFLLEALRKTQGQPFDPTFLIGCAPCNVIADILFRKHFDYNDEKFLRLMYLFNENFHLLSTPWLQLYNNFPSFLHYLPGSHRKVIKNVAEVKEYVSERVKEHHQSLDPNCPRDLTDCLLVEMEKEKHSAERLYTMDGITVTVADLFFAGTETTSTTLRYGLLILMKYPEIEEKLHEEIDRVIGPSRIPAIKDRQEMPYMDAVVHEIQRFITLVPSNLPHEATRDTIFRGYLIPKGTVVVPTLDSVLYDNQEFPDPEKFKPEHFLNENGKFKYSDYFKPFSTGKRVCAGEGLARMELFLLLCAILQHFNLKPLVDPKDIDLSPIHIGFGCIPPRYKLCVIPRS
CYP2C9, sequence (P11712 whole entry): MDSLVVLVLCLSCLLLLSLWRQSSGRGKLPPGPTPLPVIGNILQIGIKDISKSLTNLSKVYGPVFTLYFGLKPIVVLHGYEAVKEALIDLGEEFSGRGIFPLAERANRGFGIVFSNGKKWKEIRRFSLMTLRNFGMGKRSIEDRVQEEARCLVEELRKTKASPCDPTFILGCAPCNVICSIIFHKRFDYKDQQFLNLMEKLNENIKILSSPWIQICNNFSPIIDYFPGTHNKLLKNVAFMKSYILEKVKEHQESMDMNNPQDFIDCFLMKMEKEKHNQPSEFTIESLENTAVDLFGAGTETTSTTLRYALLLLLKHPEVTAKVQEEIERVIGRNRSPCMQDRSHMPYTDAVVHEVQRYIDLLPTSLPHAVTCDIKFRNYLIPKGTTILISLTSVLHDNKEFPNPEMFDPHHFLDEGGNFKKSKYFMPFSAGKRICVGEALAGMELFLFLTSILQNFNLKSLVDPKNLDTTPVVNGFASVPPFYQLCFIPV
CYP2C19, sequence (P33261 whole entry): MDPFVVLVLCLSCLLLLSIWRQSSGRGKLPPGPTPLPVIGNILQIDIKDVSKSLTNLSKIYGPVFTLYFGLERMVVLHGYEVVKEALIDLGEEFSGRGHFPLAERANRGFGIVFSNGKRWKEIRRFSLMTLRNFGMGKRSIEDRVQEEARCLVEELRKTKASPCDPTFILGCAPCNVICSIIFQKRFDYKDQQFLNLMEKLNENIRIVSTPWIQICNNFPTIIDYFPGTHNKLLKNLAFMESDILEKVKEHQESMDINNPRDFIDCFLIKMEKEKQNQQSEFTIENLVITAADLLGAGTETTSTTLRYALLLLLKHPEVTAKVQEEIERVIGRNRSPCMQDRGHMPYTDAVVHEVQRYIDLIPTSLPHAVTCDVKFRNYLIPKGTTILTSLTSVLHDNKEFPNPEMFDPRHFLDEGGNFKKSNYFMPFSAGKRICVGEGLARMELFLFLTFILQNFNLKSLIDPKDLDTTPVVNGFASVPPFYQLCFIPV
CYP3A4, sequence (P08684 whole entry): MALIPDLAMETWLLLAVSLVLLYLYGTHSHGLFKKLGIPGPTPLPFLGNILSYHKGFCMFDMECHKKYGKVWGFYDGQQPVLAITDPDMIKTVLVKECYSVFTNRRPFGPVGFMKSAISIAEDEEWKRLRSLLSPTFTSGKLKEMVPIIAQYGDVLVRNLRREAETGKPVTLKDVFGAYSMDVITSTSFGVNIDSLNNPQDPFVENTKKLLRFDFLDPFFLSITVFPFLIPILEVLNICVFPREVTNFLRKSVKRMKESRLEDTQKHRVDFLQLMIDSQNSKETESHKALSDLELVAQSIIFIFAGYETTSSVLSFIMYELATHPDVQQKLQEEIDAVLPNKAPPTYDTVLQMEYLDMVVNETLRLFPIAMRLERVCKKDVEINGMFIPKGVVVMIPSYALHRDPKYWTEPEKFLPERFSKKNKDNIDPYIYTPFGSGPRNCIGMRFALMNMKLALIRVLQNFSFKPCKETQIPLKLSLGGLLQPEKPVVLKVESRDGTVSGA
CYP3A5, sequence (P20815 whole entry): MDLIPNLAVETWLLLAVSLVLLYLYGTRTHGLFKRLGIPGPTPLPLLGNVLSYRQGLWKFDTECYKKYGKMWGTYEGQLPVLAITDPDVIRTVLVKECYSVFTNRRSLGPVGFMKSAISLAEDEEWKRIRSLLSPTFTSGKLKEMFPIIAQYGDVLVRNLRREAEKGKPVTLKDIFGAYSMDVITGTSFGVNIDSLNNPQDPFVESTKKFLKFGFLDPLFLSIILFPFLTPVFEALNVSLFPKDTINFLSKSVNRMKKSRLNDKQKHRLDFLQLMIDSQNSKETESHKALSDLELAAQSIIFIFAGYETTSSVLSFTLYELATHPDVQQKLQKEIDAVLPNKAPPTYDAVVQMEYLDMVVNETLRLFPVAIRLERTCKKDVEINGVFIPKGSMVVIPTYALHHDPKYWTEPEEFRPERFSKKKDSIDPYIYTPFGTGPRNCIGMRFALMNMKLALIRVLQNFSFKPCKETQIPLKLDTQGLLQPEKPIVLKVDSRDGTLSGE

For `CC(C)(C)[C@H](NC(=O)C(F)(F)F)C(=O)N1C[C@H]2[C@@H]([C@H]1C(=O)N[C@H](C#N)C[C@@H]1CCNC1=O)C2(C)C` [NMV, nirmatrelvir], in data set [1], the “number of NMV metabolites identified in the incubation with HLM” value is reported as 7. In addition, the “contribution of CYP3A4 to NMV metabolism (formation of M1–M7)” value at CYP3A4 was “contributed the most to all the 7 metabolic pathways of NMV”. Further, the “contribution of CYP3A5 to NMV metabolism (formation of M1–M7)” value at CYP3A5 was “also involved in the 7 metabolic pathways of NMV, especially for the production of M4 and M5”. Further, at CYP1A2, the “contribution of CYP1A2 to NMV metabolism” value is listed as “did not contribute to NMV metabolism”. Also, at CYP2A6, the “contribution of CYP2A6 to NMV metabolism” value is on record as “did not contribute to NMV metabolism”. In addition, the “contribution of CYP2B6 to NMV metabolism” value on CYP2B6 is “did not contribute to NMV metabolism”. Besides, the “contribution of CYP2C9 to NMV metabolism” value at CYP2C9 is “did not contribute to NMV metabolism”. Moreover, the “contribution of CYP2C19 to NMV metabolism” value at CYP2C19 is listed as “did not contribute to NMV metabolism”. In addition, at CYP2D6, the “contribution of CYP2D6 to NMV metabolism” value is “did not contribute to NMV metabolism”. Also, the “contribution of CYP2E1 to NMV metabolism” value on CYP2E1 was “did not contribute to NMV metabolism”. In addition, in data set [2], the “change of AUC in serum vs control group (in words)” value is recorded as “significantly decreased” and the “change of Cmax in serum vs control group (in words)” value is “significantly decreased”. Moreover, in data set [3] (setting [4]), the “decrease in AUC of NMV” value was approximately 50% and the “decrease in Cmax of NMV” value is given as approximately 50%. Further, the “reduction for NMV exposure” value in [3] (healthy subjects, CYP3A4 inducer carbamazepine, Paxlovid fact sheet ref 16) was approximately 50%. Moreover, in data set [3] (healthy subjects, CYP3A4 inhibitor itraconazole, Paxlovid fact sheet ref 16), the “change of NMV (systemic) exposure (in words)” value is “increased the systemic exposure of NMV”.
On to `CC[C@H]1CN2CC[C@]3(C(=O)Nc4ccccc43)[C@@H]2C[C@@H]1/C(=C\OC)C(=O)OC` [RCP, rhynchophylline], for which the “mRNA expression of CYP3A4 in the liver vs control” value in the data set with CYP3A4 mRNA was “significantly upregulated”. Besides, the “increase of protein level of CYP3A in the liver vs control” value in the data set with CYP3A protein (Pxr-null/CYP3A mice) is “but not in Pxr-null/CYP3A mice”. In addition, the “protein level of CYP3A in the liver vs control” value in the data set on CYP3A protein (hPXR/CYP3A mice, RIF 50 mg/kg in diet 7 days) was “increased the protein level of CYP3A”.
For `CC(C)c1nc(CN(C)C(=O)N[C@H](C(=O)N[C@@H](Cc2ccccc2)C[C@H](O)[C@H](Cc2ccccc2)NC(=O)OCc2cncs2)C(C)C)cs1` [RTV, ritonavir], in data set [2], the “change of AUC in serum vs control group (in words)” value was “also decreased” and the “change of Cmax in serum vs control group (in words)” value is on record as “also decreased”.
